This is an account of results in patent US20230279482A1, “COMPOSITIONS, METHODS AND USES FOR QUANTIFYING TRANSCRIPTION AND BIOSENSING OF SMALL MOLECULES USING A NOVEL TYPE VI CRISPR-CAS ASSAY” (THE REGENTS OF THE UNIVERSITY OF COLORADO, A BODY CORPORATE, priority 2020, published 2023).

In test [1] the test system is S-adenosylmethionine (SAM)-responsive riboswitch yitJ/pbuE*6U. The test can be described thus: SPRINT assay with SAM riboswitch. Type of test: biochemical. As to conditions: FIG. 4A. The procedure:
SPRINT reactions. Pentauridine RNA oligonucleotides were labeled with carboxyfluorescein (FAM) or TEX 615 at the 5′-end and with Iowa Black FQ at the 3′-end. Fluorescence measurements were taken at wavelengths 490/525 nm (excitation/emission) when the FAM fluorophore was used. In reactions with flavin-containing ligands, TEX-labeled RNA oligos were used at the wavelengths 576/615 (excitation/emission). Fluorescence measurements were taken every 5 minutes.
For exemplary SPRINT assays, a master mix was first prepared and then mixed with the remaining reaction reagent components to yield a final reaction volume of 30 μL; fluorescent readings of the entire reaction volume were performed in Corning 384 Flat Bottom Black Polystyrol plates. This master mix (SPRINT buffer, 10×), for assays contemplated herein can include, but is not limited to: 700 mM Tris-HCl, pH 8.0, 700 mM NaCl, 1 mM EDTA, 140 mM β-mercaptoethanol, and 25 mM MgCl2. Aliquots of an exemplary 10× SPRINT buffer were stored at −20° C. and not allowed to undergo more than 10 freeze-thaw cycles.
In another exemplary method, to test the versatility of SPRINT, small-molecule dependent transcriptional regulation of various riboswitches was examined. […]

The subject of another test is metE riboswitch. The test can be described thus: SPRINT assay with native metE OFF riboswitch (with heparin, single turnover). Format: biochemical, B. subtilis. As to conditions: OFF switch, heparin added, FIG. 7B; read-out: T50 value (reduction of transcriptional rate). The protocol: For amplification of the native metE riboswitch from the genome, the following protocol was used: Colony PCR was performed, using the oligos “metE_fwd” (SEQ ID NO: 13) and “metE_rev” (SEQ ID NO: 14) at Tm=64° C. with Q5 DNA polymerase. The constant 5′ and 3′ parts of the SPRINT constructs were also amplified via PCR reactions, using any plasmid with a complete SPRINT sequence as template. The 5′ constant part was amplified with oligos “InsulatorOligo_fwd” (SEQ ID NO:1) and “e.coliProm_rev” (SEQ ID NO: 8). The 3′ constant part was amplified with oligos “RiboswitchBB_fwd” (SEQ ID NO: 7) and “ssDNA1_rev” (SEQ ID NO: 2). […] The PCR product was purified, quantified and used for a SPRINT reaction.
In another exemplary method, certain riboswitches described herein were re-engineered for certain properties such as wide dynamic range and a ligand-induced “ON”. […] Initially, measurements at intermediate concentrations of SAM were difficult to quantify because the high rate of transcription from the B. subtilis metE OFF-switch required very high concentrations of SAM to repress the signal (FIG. 8). […]

Test [2] concerns the target T1, tetR (Escherichia coli, UniProt P04483). Kind of test: biochemical. The protocol: In other exemplary methods, reactions with allosteric transcription factors (aTFs), ROSALIND reagent buffer (10× buffer containing, for assays contemplated herein, but not limited to: 400 mM Tris-HCl, pH 8.0, 200 mM NaCl, 20 mM spermidine, 100 mM DTT and 80 mM MgCl2) were used. The buffer was prepared fresh or stored as single-use aliquots at −80° C. […] The final concentration of the aTF monomers was either 2.5 μM tetR or 10 μM smtB. The master mix was incubated for 15 minutes at 37° C. which allows the aTFs to bind to the operator sequence.
In another exemplary method, bacterial transcription can be regulated by allosteric transcription factors (aTFs), such as activators or repressors, which have previously been used for small molecule detection. Another system (“ROSALIND”) enabled rapid detection of compounds via aTFs. […] The ROSALIND buffer system differs from the SPRINT or SHERLOCK buffer. Therefore, it was tested whether aTF-based ROSALIND reactions could be integrated with the Cas13a-based detection method. To simplify the system, the inorganic pyrophosphatase (IPPase) enzyme was first removed from the ROSALIND system. IPPase was used in transcription reactions to degrade pyrophosphate which was a reaction product of the RNA polymerase and can inhibit the reaction. […] Adaptions included reducing the concentrations of rNTP from 2.85 mM to 40 μM, DNA template from 25 to 15 nM, and T7 RNAP from 10 to 6.7 ng/μL.
The responses of the de-repressors tetR and smtB were measured with SPRINT.

Test [3] has as its target T1, tetR. As to conditions: read-out: previously reported range; cited from earlier work.
For test [4], the system named is guanine riboswitch xpt/pbuE*6U. Kind of test: SPRINT compound screen on guanine riboswitch. The settings on record: 1 μM, FIG. 10. Format: biochemical. The procedure: Briefly, the transcriptional response of the guanine riboswitch xpt/pbuE*6U to 30 different compounds was measured at two different concentrations each (FIG. 9A and FIG. 10). The concentrations used were 10 μM and 1 mM for most compounds. The signal that was obtained from control experiments with the solvents DMSO or water was subtracted from all values.

A further test relates to bacteria. As to conditions: cited from earlier work.
A further test relates to guanine riboswitch. As to conditions: as low as; cited from earlier work.
Test [5] relates to SPRINT assay without riboswitch (constitutively transcribed Cas13a target). The test can be described thus: SPRINT control screen with constitutive promoter template (PAINS identification). The settings on record: FIG. 9B.
Experimental: The master mix was gently mixed by pipetting up and down and incubated at 37° C. for 15 minutes to allow binding of crRNA to Cas13a protein and the microwell plate was prepared by adding 3 μL of 10× ligand to the wells. The reaction was initiated by addition of rNTPs to the master mix to a concentration of 20 μM and then 27 μL of the complete master mix were added to each well and pipetted up and down to mix with the ligand in the wells. The plate was covered with an optical adhesive film to prevent evaporation of the sample while taking fluorescence measurements in a plate reader that was preheated to 37° C.
In test [6] the target is T2, bacterial RNAP (Escherichia coli, UniProt P0A8V2). The test can be described thus: SPRINT rifampicin titration with constitutive promoter. Format: biochemical, E. coli.
Target sequence in this assay (P0A8V2 whole entry): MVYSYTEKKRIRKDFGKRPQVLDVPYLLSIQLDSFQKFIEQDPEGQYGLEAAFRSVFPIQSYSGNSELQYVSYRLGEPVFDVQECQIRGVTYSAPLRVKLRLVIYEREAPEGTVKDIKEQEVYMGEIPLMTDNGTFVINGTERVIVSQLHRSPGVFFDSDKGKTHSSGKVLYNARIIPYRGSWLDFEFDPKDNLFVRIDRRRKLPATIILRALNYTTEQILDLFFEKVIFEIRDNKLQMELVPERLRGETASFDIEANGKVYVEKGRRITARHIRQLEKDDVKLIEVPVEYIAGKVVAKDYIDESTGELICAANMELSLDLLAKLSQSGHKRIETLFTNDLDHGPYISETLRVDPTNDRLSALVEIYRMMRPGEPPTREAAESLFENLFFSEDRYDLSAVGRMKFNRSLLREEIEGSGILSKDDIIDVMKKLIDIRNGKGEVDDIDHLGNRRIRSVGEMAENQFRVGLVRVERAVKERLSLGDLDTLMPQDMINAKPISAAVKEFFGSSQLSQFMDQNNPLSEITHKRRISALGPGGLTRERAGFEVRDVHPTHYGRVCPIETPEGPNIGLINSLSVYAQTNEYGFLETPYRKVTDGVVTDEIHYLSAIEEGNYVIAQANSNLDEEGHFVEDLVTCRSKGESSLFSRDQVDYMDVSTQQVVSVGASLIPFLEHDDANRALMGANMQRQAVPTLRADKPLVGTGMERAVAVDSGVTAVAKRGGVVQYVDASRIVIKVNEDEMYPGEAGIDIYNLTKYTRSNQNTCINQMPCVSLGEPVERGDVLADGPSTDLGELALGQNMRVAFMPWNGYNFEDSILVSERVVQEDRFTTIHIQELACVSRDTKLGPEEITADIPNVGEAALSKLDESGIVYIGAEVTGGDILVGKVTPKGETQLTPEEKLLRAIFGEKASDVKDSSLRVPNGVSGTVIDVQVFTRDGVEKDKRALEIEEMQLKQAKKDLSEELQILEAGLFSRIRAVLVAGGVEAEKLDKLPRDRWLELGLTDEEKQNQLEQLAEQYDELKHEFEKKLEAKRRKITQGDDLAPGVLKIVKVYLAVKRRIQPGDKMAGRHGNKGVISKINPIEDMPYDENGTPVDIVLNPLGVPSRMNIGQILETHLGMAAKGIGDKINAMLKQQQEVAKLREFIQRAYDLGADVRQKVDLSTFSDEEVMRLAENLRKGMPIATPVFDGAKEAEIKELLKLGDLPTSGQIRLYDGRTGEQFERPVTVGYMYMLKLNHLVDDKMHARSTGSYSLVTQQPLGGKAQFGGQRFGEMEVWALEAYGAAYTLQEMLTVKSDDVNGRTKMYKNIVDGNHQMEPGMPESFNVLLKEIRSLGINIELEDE
Target sequence in this assay (P0A8T7 whole entry partner): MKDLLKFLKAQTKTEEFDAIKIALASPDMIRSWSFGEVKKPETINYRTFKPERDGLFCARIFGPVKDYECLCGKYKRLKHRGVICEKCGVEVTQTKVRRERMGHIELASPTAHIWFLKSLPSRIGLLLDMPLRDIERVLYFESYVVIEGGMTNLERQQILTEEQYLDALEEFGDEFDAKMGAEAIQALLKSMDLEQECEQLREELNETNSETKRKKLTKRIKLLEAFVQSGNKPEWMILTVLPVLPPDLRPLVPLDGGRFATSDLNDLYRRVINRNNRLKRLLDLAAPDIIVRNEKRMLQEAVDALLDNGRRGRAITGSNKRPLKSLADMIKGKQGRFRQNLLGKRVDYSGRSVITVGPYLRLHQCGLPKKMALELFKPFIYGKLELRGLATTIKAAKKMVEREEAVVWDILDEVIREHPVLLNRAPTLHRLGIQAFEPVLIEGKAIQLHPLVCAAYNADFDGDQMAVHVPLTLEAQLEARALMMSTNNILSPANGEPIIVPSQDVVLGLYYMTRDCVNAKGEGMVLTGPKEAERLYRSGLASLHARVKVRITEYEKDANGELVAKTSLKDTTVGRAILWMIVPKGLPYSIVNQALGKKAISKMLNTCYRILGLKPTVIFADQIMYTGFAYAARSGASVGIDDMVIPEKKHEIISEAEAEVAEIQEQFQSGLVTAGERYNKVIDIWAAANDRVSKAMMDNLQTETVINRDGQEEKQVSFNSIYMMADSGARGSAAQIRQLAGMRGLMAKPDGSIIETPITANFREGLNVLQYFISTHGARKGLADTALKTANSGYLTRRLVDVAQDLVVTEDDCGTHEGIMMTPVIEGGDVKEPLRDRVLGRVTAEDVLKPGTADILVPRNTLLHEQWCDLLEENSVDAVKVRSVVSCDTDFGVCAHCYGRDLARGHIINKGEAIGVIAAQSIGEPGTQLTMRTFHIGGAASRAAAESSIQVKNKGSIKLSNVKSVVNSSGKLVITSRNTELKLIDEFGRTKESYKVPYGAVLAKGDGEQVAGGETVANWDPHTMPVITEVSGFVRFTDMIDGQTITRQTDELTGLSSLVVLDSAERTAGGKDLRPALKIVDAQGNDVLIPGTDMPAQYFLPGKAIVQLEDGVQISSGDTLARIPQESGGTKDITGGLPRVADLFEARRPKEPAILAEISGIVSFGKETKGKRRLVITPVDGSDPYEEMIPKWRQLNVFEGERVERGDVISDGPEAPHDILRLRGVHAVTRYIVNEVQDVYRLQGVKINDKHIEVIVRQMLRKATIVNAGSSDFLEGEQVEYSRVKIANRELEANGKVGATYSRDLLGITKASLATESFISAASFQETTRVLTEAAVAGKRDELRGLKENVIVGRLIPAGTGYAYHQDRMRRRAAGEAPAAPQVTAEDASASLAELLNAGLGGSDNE
Target sequence in this assay (P0A7Z4 whole entry partner): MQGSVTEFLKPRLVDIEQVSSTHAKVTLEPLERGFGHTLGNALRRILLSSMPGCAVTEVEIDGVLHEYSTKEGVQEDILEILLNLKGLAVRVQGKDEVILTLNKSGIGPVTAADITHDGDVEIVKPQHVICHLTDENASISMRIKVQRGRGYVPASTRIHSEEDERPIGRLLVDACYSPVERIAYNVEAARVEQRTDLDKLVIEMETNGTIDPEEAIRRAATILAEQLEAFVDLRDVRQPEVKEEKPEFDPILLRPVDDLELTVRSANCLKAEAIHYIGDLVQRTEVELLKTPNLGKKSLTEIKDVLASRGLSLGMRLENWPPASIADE
Target sequence in this assay (P0A800 whole entry partner): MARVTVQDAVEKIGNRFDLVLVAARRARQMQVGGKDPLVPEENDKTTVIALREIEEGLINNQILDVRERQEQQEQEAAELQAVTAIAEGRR
Target sequence in this assay (P00579 whole entry partner): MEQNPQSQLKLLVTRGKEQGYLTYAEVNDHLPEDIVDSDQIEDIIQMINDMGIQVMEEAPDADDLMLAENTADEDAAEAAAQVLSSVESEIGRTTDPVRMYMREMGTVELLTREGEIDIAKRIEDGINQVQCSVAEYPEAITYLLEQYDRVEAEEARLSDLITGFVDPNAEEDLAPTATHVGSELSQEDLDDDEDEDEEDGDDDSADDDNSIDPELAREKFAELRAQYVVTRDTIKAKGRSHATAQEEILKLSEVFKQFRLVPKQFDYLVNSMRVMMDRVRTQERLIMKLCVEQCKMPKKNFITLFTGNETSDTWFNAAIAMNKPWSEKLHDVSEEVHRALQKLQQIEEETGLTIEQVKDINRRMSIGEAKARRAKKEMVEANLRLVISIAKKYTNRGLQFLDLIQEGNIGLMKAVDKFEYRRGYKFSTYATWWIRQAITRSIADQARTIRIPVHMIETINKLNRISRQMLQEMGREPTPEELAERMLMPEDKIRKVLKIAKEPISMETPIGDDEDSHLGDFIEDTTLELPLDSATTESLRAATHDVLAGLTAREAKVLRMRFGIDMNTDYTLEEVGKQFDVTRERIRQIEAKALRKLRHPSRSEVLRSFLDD
Test [7] deals with T2, bacterial RNAP. As to conditions: cited from earlier work.

Structures are written as SMILES. Read-outs that look alike come from different tables or passages of the source. Bounds are passed on as bounds.

T1 sequence (P04483 whole entry): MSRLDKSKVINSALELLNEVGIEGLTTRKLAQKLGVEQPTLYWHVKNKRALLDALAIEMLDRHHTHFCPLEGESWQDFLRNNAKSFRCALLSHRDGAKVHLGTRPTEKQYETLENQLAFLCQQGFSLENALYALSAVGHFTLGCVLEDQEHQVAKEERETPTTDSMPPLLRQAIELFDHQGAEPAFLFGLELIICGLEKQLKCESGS

Take `C[S+](CC[C@H](N)C(=O)O)C[C@H]1O[C@@H](n2cnc3c(N)ncnc32)[C@H](O)[C@@H]1O` (some centres unmarked) [SAM, S-adenosylmethionine]: the “response of SAM riboswitch to ligand” value in test [1] is “responsive”. The EC50 in the test with metE riboswitch is around 1000 nM.
Regarding `Cc1c2c(c(O)c3c(O)cccc13)C(=O)[C@]1(O)C(=O)C(C(N)=O)=C(O)[C@@H](N(C)C)[C@@H]1C2` [anhydrotetracycline], the EC50 was 1900 ± 200 nM on tetR [2] and 1000 to 2500 nM on tetR [3].
As to `Nc1nc(N)c(N)c(=O)[nH]1` [2,5,6-TAP], the “transcriptional activation at low concentration” value in [4] was “only slightly activated transcription”. Besides, the “concentration with bactericidal properties” value in the test with bacteria is given as 8 mM. Moreover, the “concentration at which it binds the guanine riboswitch” value in the test with guanine riboswitch is listed as at least 100 nM. In addition, the “effect on enzymatic activity of the SPRINT assay at high concentration” value in [5] (100 μM, FIG. 10) is reported as “completely shut down enzymatic activity”. Further, the “interference with SPRINT assay (PAINS)” value in test [5] (constitutive promoter template) is listed as “interfering compounds”.
Broadly, the IC50 is the concentration that gives 50% inhibition. Read a high IC50 as weaker potency. As a reminder, the Kd is the constant that tells how readily two partners part at equilibrium. As for `CO[C@H]1/C=C/O[C@@]2(C)Oc3c(C)c(O)c4c(O)c(c(/C=N/N5CCN(C)CC5)c(O)c4c3C2=O)NC(=O)/C(C)=C\C=C\[C@H](C)[C@H](O)[C@@H](C)[C@@H](O)[C@@H](C)[C@H](OC(C)=O)[C@@H]1C` [rifampicin], at bacterial RNAP [6], it took 5.9 ± 0.6 nM to reach half-maximal inhibition (IC50). Also, on bacterial RNAP [7], the Kd was 3 nM.
